# Test results: US12371454B2, “Cyclic peptide compound having Kras inhibitory action” (priority 2019, dated 2025)
# Positions of bridges follow the written chain, without caps; N, C: chain ends. Non-standard residues stand in square brackets, D forms with d. Residues, ends and D or L forms follow the SMILES beside them. *: point of attachment. hPhe(3-Cl-4-CF3) = N[C@@H](CCc1ccc(C(F)(F)F)c(Cl)c1)C(=O)O; NMePhe(4-CF3) = CN[C@@H](Cc1ccc(C(F)(F)F)cc1)C(=O)O; hPhe(4-CF3) = N[C@@H](CCc1ccc(C(F)(F)F)cc1)C(=O)O; NMePhe(4-Cl) = CN[C@@H](Cc1ccc(Cl)cc1)C(=O)O; NMePhe(4-Me) = CN[C@@H](Cc1ccc(C)cc1)C(=O)O; NMeGly(cPent) = CN[C@H](C(=O)O)C1CCCC1; Phe(3-I) = N[C@@H](Cc1cccc(I)c1)C(=O)O; Met(O2) = CS(=O)(=O)CC[C@H](N)C(=O)O; NMeCha = CN[C@@H](CC1CCCCC1)C(=O)O; NMeChg = CN[C@H](C(=O)O)C1CCCCC1; NMeF = CN[C@@H](Cc1ccccc1)C(=O)O; NMeE = CN[C@@H](CCC(=O)O)C(=O)O; Gly(cPr) = N[C@H](C(=O)O)C1CC1; NMeD = CN[C@@H](CC(=O)O)C(=O)O; NMeL = CN[C@@H](CC(C)C)C(=O)O; NMeV = CN[C@H](C(=O)O)C(C)C; d(β3hA) = C[C@@H](N)CC(=O)O; NMeA = CN[C@@H](C)C(=O)O; Nle = CCCC[C@H](N)C(=O)O; Piperidide = C1CCN(*)CC1; dNMeA = CN[C@H](C)C(=O)O; Ac5c = NC1(C(=O)O)CCCC1; Aze = O=C(O)[C@@H]1CCN1; Sar = CNCC(=O)O; Propyl = CCC*
# Molecular target: T1, Kras and SOS1 (biotin-tagged human Kras loaded with GDP, His-tagged human SOS1) (Homo sapiens, UniProt P01116, G12D)
# T1 construct: made in house; host or cells: E. coli (stated for Kras only)
# Test: Protein-protein interaction inhibition between Kras and SOS1 (KrasGl2D-SOS PPI) using AlphaScreen
# Assay type: binding
# Conditions: AlphaScreen; biotin-tagged human Kras loaded with GDP, His-tagged human SOS1; read-out: KRAS G12D-SOS PPI IC50
# Procedure, shortened: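 Kras was produced in E. coli, purified, then loaded with GDP. It was paired via streptavidin acceptor beads with His-SOS1 held on nickel donor beads, and proximity signal at 520-620 nm was read after 680 nm illumination.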
# T1 sequence (P01116 1-188 isoform P01116-2 G12D): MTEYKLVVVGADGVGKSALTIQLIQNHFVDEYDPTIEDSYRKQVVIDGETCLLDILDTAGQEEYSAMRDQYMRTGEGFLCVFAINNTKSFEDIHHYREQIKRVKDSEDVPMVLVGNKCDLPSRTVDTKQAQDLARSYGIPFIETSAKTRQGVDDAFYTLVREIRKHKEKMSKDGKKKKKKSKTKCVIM
row,SMILES,IC50 [nM]
1,CC[C@H](C)[C@@H]1NC(=O)[C@H](C)N(C)C(=O)C[C@@H](C)NC(=O)[C@H](C2CCCC2)N(C)C(=O)C2(CCCC2)NC(=O)[C@@H]2CCCN2C(=O)[C@H](CCc2ccc(C(F)(F)F)c(Cl)c2)NC(=O)[C@@H](C)N(C)C(=O)[C@H](Cc2ccc(C(F)(F)F)cc2)N(C)C(=O)CN(C)C(=O)CN(C)C1=O [Compound 1520] (cyclo([Ac5c][NMeGly(cPent)][d(β3hA)][NMeA]I[Sar][Sar][NMePhe(4-CF3)][dNMeA][hPhe(3-Cl-4-CF3)]P)),59
2,CC(C)C[C@H]1C(=O)N[C@@H](C2CC2)C(=O)N(C)CC(=O)N(C)CC(=O)N(C)[C@@H](CC2CCCCC2)C(=O)N(C)CC(=O)N[C@@H](CCc2ccc(C(F)(F)F)c(Cl)c2)C(=O)N2CCC[C@H]2C(=O)NC2(CCCC2)C(=O)N(C)[C@@H](C(C)C)C(=O)N[C@H](C)CC(=O)N1C [Compound 101] (cyclo([Ac5c][NMeV][d(β3hA)][NMeL][Gly(cPr)][Sar][Sar][NMeCha][Sar][hPhe(3-Cl-4-CF3)]P)),160
3,"CCCC[C@@H]1NC(=O)[C@H](Cc2cccc(I)c2)NC(=O)CN(C)C(=O)[C@H](Cc2ccc(C)cc2)N(C)C(=O)CN(C)C(=O)CN(C)C(=O)[C@H]([C@@H](C)CC)NC(=O)[C@H](CC(C)C)N(C)C(=O)C[C@@H](C(=O)N2CCCCC2)N(C)C(=O)[C@H](CC(C)C)NC(=O)[C@H](CCC(=O)N(C)C)N(C)C1=O [Compound 2100, 3-[(3S,6S,9S,12S,18S,27S,30S,34S)-9-butyl-12-[(3-iodophenyl)methyl]-3,30-diisobutyl-1,7,16,19,22,25,31-heptamethyl-27-[(1S)-1-methylpropyl]-2,5,8,11,14,17,20,23,26,29,32-undecaoxo-34-(piperidine-1-carbonyl)-18-(p-tolylmethyl)-1,4,7,10,13,16,19,22,25,28,31-undecazacyclotetratriacont-6-yl]-N,N-dimethyl-propanamide] ([NMeL]I[Sar][Sar][NMePhe(4-Me)][Sar][Phe(3-I)][Nle][NMeE](NMe2)L[NMeD]-Piperidide; lactam N-11)",15
4,CC[C@H](C)[C@@H]1NC(=O)[C@H](C(C)C)N(C)C(=O)C[C@@H](C)NC(=O)[C@H](CC(C)C)N(C)C(=O)C2(CCCC2)NC(=O)[C@H](CC(C)C)N(C)C(=O)[C@H](CCc2ccc(C(F)(F)F)cc2)NC(=O)CN(C)C(=O)[C@H](Cc2ccc(Cl)cc2)N(C)C(=O)CN(C)C(=O)[C@@H]2CCN2C1=O [Compound 538] (cyclo([Ac5c][NMeL][d(β3hA)][NMeV]I[Aze][Sar][NMePhe(4-Cl)][Sar][hPhe(4-CF3)][NMeL])),110
5,CC[C@H](C)[C@@H]1NC(=O)[C@H](C)N(C)C(=O)C[C@@H](C)NC(=O)[C@H](C(C)C)N(C)C(=O)[C@H](Cc2ccccc2)N(C)C(=O)[C@H](CC(C)C)N(C)C(=O)[C@H](CCc2ccc(C(F)(F)F)cc2)NC(=O)CN(C)C(=O)[C@H](Cc2ccc(Cl)cc2)N(C)C(=O)CN(C)C(=O)[C@@H]2CCN2C1=O [Compound 71] (cyclo([Aze][Sar][NMePhe(4-Cl)][Sar][hPhe(4-CF3)][NMeL][NMeF][NMeV][d(β3hA)][NMeA]I)),150
6,CC(C)C[C@H]1C(=O)N[C@@H](CCS(C)(=O)=O)C(=O)N(C)CC(=O)N(C)CC(=O)N(C)[C@@H](CC2CCCCC2)C(=O)N(C)CC(=O)N[C@@H](CCc2ccc(C(F)(F)F)c(Cl)c2)C(=O)N2CCC[C@H]2C(=O)NC2(CCCC2)C(=O)N(C)[C@@H](C2CCCCC2)C(=O)N(C)[C@H](C(=O)N2CCCCC2)CC(=O)N1C [Compound 283] ([NMeL][Met(O2)][Sar][Sar][NMeCha][Sar][hPhe(3-Cl-4-CF3)]P[Ac5c][NMeChg][NMeD]-Piperidide; lactam N-11),6.8
7,CCCOC[C@@H]1NC(=O)[C@H](CC(C)C)N(C)C(=O)C[C@@H](C(=O)N2CCCCC2)N(C)C(=O)[C@H](C2CCCCC2)N(C)C(=O)C2(CCCC2)NC(=O)[C@@H]2CCCN2C(=O)[C@H](CCc2ccc(C(F)(F)F)c(Cl)c2)NC(=O)CN(C)C(=O)[C@H](CC2CCCCC2)N(C)C(=O)CN(C)C(=O)CN(C)C1=O [Compound 1736] ([NMeL]S(Propyl)[Sar][Sar][NMeCha][Sar][hPhe(3-Cl-4-CF3)]P[Ac5c][NMeChg][NMeD]-Piperidide; lactam N-11),4.3
8,"CC[C@H](C)[C@@H]1NC(=O)[C@H](CC(C)C)N(C)C(=O)C[C@@H](C(=O)N(C)C)N(C)C(=O)[C@H](C2CCCC2)N(C)C(=O)C2(CCCC2)NC(=O)[C@@H]2CCCN2C(=O)[C@H](CCc2ccc(C(F)(F)F)c(Cl)c2)NC(=O)CN(C)C(=O)[C@H](Cc2ccc(C)cc2)N(C)C(=O)[C@@H]2CCN2C(=O)[C@H](C)NC1=O [Compound 363, (5S,8S,11S,15S,18S,23aS,29S,35S,37aS)-8-((S)-sec-butyl)-29-(3-chloro-4-(trifluoromethyl)phenethyl)-18-cyclopentyl-11-isobutyl-N,N,5,12,16,19,33,36-octamethyl-35-(4-methylbenzyl)-4,7,10,13,17,20,23,28,31,34,37-undecaoxotetratriacontahydro-2H,4H-spiro[azeto[2,1-u]pyrrolo[2,1-i][1,4,7,10,13,16,19,22,25,28,31]undecaazacyclotetratriacontine-21,1′-cyclopentane]-15-carboxamide] ([NMeL]IA[Aze][NMePhe(4-Me)][Sar][hPhe(3-Cl-4-CF3)]P[Ac5c][NMeGly(cPent)][NMeD]-NMe2; lactam N-11)",0.65
